Assay results: ChEMBL document CHEMBL1142848, “Synthesis and antibacterial activity of N-(5-benzylthio-1,3,4-thiadiazol-2-yl) and N-(5-benzylsulfonyl-1,3,4-thiadiazol-2-yl)piperazinyl quinolone derivatives” (2005)
In brackets after ≈: the same amount, converted by molar mass.

How the values were obtained:
Assay type in all cases: functional
[1] = test system: Pseudomonas aeruginosa; assay: Minimum inhibitory concentration against Pseudomonas aeruginosa
[2] = test system: Escherichia coli; assay: Minimum inhibitory concentration against Escherichia coli
[3] = test system: Klebsiella pneumoniae; assay: Minimum inhibitory concentration against Klebsiella pneumoniae
[4] = test system: Staphylococcus epidermidis; assay: Minimum inhibitory concentration against Staphylococcus epidermidis
[5] = test system: Staphylococcus aureus; assay: Minimum inhibitory concentration against Staphylococcus aureus
[6] = test system: Bacillus subtilis; assay: Minimum inhibitory concentration against Bacillus subtilis

Row | MIC [1] [µg/mL] | MIC [2] [µg/mL] | MIC [3] [µg/mL] | MIC [4] [µg/mL] | MIC [5] [µg/mL] | MIC [6] [µg/mL] | SMILES
1 | > 64 | 16 (≈ 28 µM) | 32 (≈ 56.1 µM) | 0.5 (≈ 0.876 µM) | 4 (≈ 7.01 µM) | 8 (≈ 14 µM) | CCn1cc(C(=O)O)c(=O)c2cc(F)c(N3CCN(c4nnc(SCc5ccccc5[N+](=O)[O-])s4)CC3)cc21
2 | > 64 | > 64 | > 64 | 16 (≈ 28.7 µM) | 64 (≈ 115 µM) | 8 (≈ 14.3 µM) | CCn1cc(C(=O)O)c(=O)c2cc(F)c(N3CCN(c4nnc(S(=O)(=O)Cc5ccccc5)s4)CC3)cc21
3 | > 64 | 32 (≈ 53.1 µM) | 64 (≈ 106 µM) | > 64 | > 64 | 16 (≈ 26.6 µM) | CCn1cc(C(=O)O)c(=O)c2cc(F)c(N3CCN(c4nnc(S(=O)(=O)Cc5ccccc5[N+](=O)[O-])s4)CC3)cc21
4 | > 64 | 8 (≈ 13 µM) | 16 (≈ 26 µM) | 0.05 (≈ 0.0813 µM) | 1 (≈ 1.63 µM) | 8 (≈ 13 µM) | O=C(O)c1cn(C2CC2)c2cc(N3CCN(c4nnc(S(=O)(=O)Cc5cccc([N+](=O)[O-])c5)s4)CC3)c(F)cc2c1=O
5 | > 64 | 16 (≈ 29.8 µM) | 32 (≈ 59.5 µM) | 1 (≈ 1.86 µM) | 2 (≈ 3.72 µM) | 4 (≈ 7.44 µM) | O=C(O)c1cn(C2CC2)c2cc(N3CCN(c4nnc(SCc5ccccc5)s4)CC3)c(F)cc2c1=O
6 | > 64 | > 64 | > 64 | 4 (≈ 7.02 µM) | 16 (≈ 28.1 µM) | 4 (≈ 7.02 µM) | O=C(O)c1cn(C2CC2)c2cc(N3CCN(c4nnc(S(=O)(=O)Cc5ccccc5)s4)CC3)c(F)cc2c1=O
7 | > 32 | 1 (≈ 1.63 µM) | 4 (≈ 6.51 µM) | 0.03 (≈ 0.0488 µM) | 4 (≈ 6.51 µM) | 1 (≈ 1.63 µM) | O=C(O)c1cn(C2CC2)c2cc(N3CCN(c4nnc(S(=O)(=O)Cc5ccccc5[N+](=O)[O-])s4)CC3)c(F)cc2c1=O
8 | 32 (≈ 54.9 µM) | 1 (≈ 1.72 µM) | 2 (≈ 3.43 µM) | 0.03 (≈ 0.0515 µM) | 0.5 (≈ 0.858 µM) | 0.5 (≈ 0.858 µM) | O=C(O)c1cn(C2CC2)c2cc(N3CCN(c4nnc(SCc5ccc([N+](=O)[O-])cc5)s4)CC3)c(F)cc2c1=O
9 | > 64 | 32 (≈ 56.1 µM) | 64 (≈ 112 µM) | 0.5 (≈ 0.876 µM) | 4 (≈ 7.01 µM) | 2 (≈ 3.5 µM) | CCn1cc(C(=O)O)c(=O)c2cc(F)c(N3CCN(c4nnc(SCc5ccc([N+](=O)[O-])cc5)s4)CC3)cc21
10 | 64 (≈ 110 µM) | 2 (≈ 3.43 µM) | 2 (≈ 3.43 µM) | 0.06 (≈ 0.103 µM) | 0.5 (≈ 0.858 µM) | 4 (≈ 6.87 µM) | O=C(O)c1cn(C2CC2)c2cc(N3CCN(c4nnc(SCc5cccc([N+](=O)[O-])c5)s4)CC3)c(F)cc2c1=O
11 | > 64 | > 64 | > 64 | 64 (≈ 106 µM) | > 64 | 64 (≈ 106 µM) | CCn1cc(C(=O)O)c(=O)c2cc(F)c(N3CCN(c4nnc(S(=O)(=O)Cc5cccc([N+](=O)[O-])c5)s4)CC3)cc21
12 | > 64 | > 64 | > 64 | 8 (≈ 13.3 µM) | 64 (≈ 106 µM) | 32 (≈ 53.1 µM) | CCn1cc(C(=O)O)c(=O)c2cc(F)c(N3CCN(c4nnc(S(=O)(=O)Cc5ccc([N+](=O)[O-])cc5)s4)CC3)cc21
13 | > 64 | > 64 | 64 (≈ 104 µM) | 2 (≈ 3.25 µM) | 8 (≈ 13 µM) | 1 (≈ 1.63 µM) | O=C(O)c1cn(C2CC2)c2cc(N3CCN(c4nnc(S(=O)(=O)Cc5ccc([N+](=O)[O-])cc5)s4)CC3)c(F)cc2c1=O
14 | > 64 | 16 (≈ 28 µM) | 16 (≈ 28 µM) | 0.25 (≈ 0.438 µM) | 2 (≈ 3.5 µM) | 8 (≈ 14 µM) | CCn1cc(C(=O)O)c(=O)c2cc(F)c(N3CCN(c4nnc(SCc5cccc([N+](=O)[O-])c5)s4)CC3)cc21
15 | 64 (≈ 110 µM) | 2 (≈ 3.43 µM) | 16 (≈ 27.5 µM) | 0.06 (≈ 0.103 µM) | 2 (≈ 3.43 µM) | 4 (≈ 6.87 µM) | O=C(O)c1cn(C2CC2)c2cc(N3CCN(c4nnc(SCc5ccccc5[N+](=O)[O-])s4)CC3)c(F)cc2c1=O
16 | > 64 | 16 (≈ 30.4 µM) | 16 (≈ 30.4 µM) | 2 (≈ 3.8 µM) | 16 (≈ 30.4 µM) | 8 (≈ 15.2 µM) | CCn1cc(C(=O)O)c(=O)c2cc(F)c(N3CCN(c4nnc(SCc5ccccc5)s4)CC3)cc21

Row | SMILES | MIC [1] [µg/mL] | MIC [2] [µg/mL] | MIC [3] [µg/mL] | MIC [4] [µg/mL] | MIC [5] [µg/mL] | MIC [6] [µg/mL]
17 | O=C(O)c1cn(C2CC2)c2cc(N3CCNCC3)c(F)cc2c1=O [CIPROFLOXACIN] | – | – | 0.06 (≈ 0.181 µM) | 0.25 (≈ 0.754 µM) | 0.5 (≈ 1.51 µM) | 0.015 (≈ 0.0453 µM)
18 | CCn1cc(C(=O)O)c(=O)c2cc(F)c(N3CCNCC3)cc21 [NORFLOXACIN] | 2 (≈ 6.26 µM) | 0.25 (≈ 0.783 µM) | 0.25 (≈ 0.783 µM) | 0.5 (≈ 1.57 µM) | 1 (≈ 3.13 µM) | 0.06 (≈ 0.188 µM)
